These are literature values, as cited in patent US20130116244A1, “PHAR[…] COMPOSITIONS” (AESICA FORMULATION DEVELOPMENT LIMITED, priority 2010, published 2013).

Structures are written as SMILES.

Test in series [1]: not given
The source holds these as a separate data set.

The conditions of series [2]: in vivo.

On to `CN1C(=O)CN=C(c2ccccc2)c2cc(Cl)ccc21` [diazepam], for which the “time after which anticonvulsant/sedative effects wear off” value (typically) is 15 to 30 min.

Turning to `O=C1Nc2ccc(Cl)cc2C(c2ccccc2Cl)=NC1O` (stereo not shown) [lorazepam, 7-chloro-5-(2-chlorophenyl)-1,3-dihydro-3-hydroxy-2H-1,4-benzodiazepin-2-one], the “duration of anticonvulsant/sedative effects” value (effects can last for) is 12 to 24 h. Moreover, in series [1], the “diazepam dose equal in effect to lorazepam 1 mg (relative potency)” value is given as 10 mg. In series [2], the half life is 10 to 20 h.
